Assay results reported in PMC9604662, “New Ceramides and Cerebrosides from the Deep-Sea Far Eastern Starfish Ceramaster patagonicus” (Marine Drugs, 2022).
Values belong to the compound of their own block, whether it stands above or below them.

Key:
[1] = tested on: human breast cancer cells MDA-MB-231; assay: Soft agar colony formation assay; type: cell-based; conditions: MDA-MB-231, 336 h, 14 days of incubation, read-out: inhibition of colony formation (decrease in number of colonies) of MDA-MB-231 cells
Description: Since compounds 1–3, 5–7, and 9 inhibited the viability of breast cancer cells MDA-MB-231, we then tested their ability to inhibit colony formation of MDA-MB-231 cells using the soft agar assay. The colony formation assay, also referred to as soft agar assay, allows for screening the therapeutic efficacy of compounds for anchorage-independent cell growth, which is one of the hallmark characteristics of cellular transformation and uncontrolled growth of cancer cells.
Figure 4 The effect of compounds 1–3, 5–7, and 9 on colony formation of human breast cancer cells MDA-MB-231 (2.4 × 10^4) that were exposed to PBS (control), Doxo (5, 10, and 20 µM), or the compounds under study (5, 10, and 20 µM) and placed on dishes with 0.3% Basal Medium Eagle (BME) agar containing 10% fetal bovine serum FBS, 2 mM L-glutamine, and 25 µg/mL gentamicin. After 14 days of incubation, the number of colonies was counted under a microscope using the ImageJ software program.
MDA-MB-231 cells (2.4 × 10^4/mL) were exposed to either DMSO (vehicle control) or Doxo (positive control) at concentrations of 5, 10, and 20 µM, and to 1–3, 5–7, and 9 at concentrations of 5, 10, 20 µM. Then, the cells were applied on dishes with 0.3% BME agar containing 10% FBS, 2 mM L-glutamine, and 25 µg/mL gentamicin. The cultures were maintained at 37°C in a 5% CO2 incubator for 14 days. The number and size of the colonies were estimated under a Motic microscope AE 20 and using the ImageJ software bundled with 64-bit Java 1.8.0_112 (NIH, Bethesda, Maryland, USA).

[2] = tested on: breast adenocarcinoma MDA-MB-231 cells; assay: MTS cell viability assay, MDA-MB-231; type: cell-based, human; conditions: for IC50: Homo sapiens, MDA-MB-231, MTS assay, 24 h exposure, mean ± SD, read-out: Half Maximal Inhibitory Concentration (IC50) MDA-MB-231; for cytotoxic activity against MDA-MB-231 cells (in words): concentrations of up to 50 µM, MTS, 24 h
Description: (§1) In the present study, the cytotoxic activity of compounds 1–3, 5–7, and 9 against human normal embryonic kidney cells HEK293 and a panel of human cancer cells HT-29, SK-MEL-28, and MDA-MB-231 was measured by the MTS assay after 24 h of exposure. Different concentrations of doxorubicin (10, 50, and 100 µM), used as a positive control, and compounds 1–3, 5–7, and 9 (1, 10, and 50 µM) were studied.
(§2) The human embryonic kidney cells HEK293 (ATCC® CRL-1573™), the colorectal adenocarcinoma cell line HT-29 (ATCC® HTB-38), the melanoma SK-MEL-28 (ATCC® HTB-72™), and breast adenocarcinoma MDA-MB-231 (ATCC® HTB-26™) cell lines were obtained from the American Type Culture Collection (Manassas, VA, USA).
(§3) HT 29 cells were cultured in McCoy’s 5A medium; HEK293, SK-MEL-28, and MDA-MB-231 cell lines were maintained in the DMEM medium. The culture media were supplemented with 10% FBS and a 1% penicillin/streptomycin solution. The cell cultures were maintained at 37 °C in a humidified atmosphere containing 5% CO2.
(§4) Compounds 1–3, 5–7, and 9 were dissolved in a sterile dimethyl sulfoxide solution (DMSO) to prepare stock concentrations of 20 mM. Cells were exposed to serially diluted 1–3, 5–7, and 9 (1–100 µM) (with the culture medium used as a diluent) (the final concentration of DMSO was less than 0.5%).
(§5) Doxorubicin (Doxo) (Teva Pharmaceutical Industries, Ltd. (Israel)) was dissolved in sterile PBS to prepare stock concentrations of 10 mM. Cells were exposed to serially diluted Doxo (10–100 µM) (with the culture medium used as a diluent).
(§6) The effect of compounds 1–3, 5–7, and 9 on the viability of tested cell lines was evaluated by the MTS assay. HEK293 (1.0 × 10^4/200 µL), HT-29 (1.0 × 10^4/200 µL), SK-MEL-28 (0.8 × 10^4/200 µL), and MDA-MB-231 (1.0 × 10^4/200 µL) cells were seeded on a 96-well plate and incubated for 24 h at 37°C in a CO2 incubator. The cells were exposed to either DMSO (vehicle control) or Doxo at concentrations of […] (positive control) or 1–3, 5–7, and 9 at concentrations of 1, 10, and 50 µM for 24 h. The cells were subsequently incubated with 15 µL MTS reagent for 3 h, and the absorbance of each well was measured at 490/630 nm on a Power Wave XS microplate reader (BioTek, Winooski, VT, USA). The concentration at which a compound exerted half of its maximal inhibitory effect on cell viability (IC50) was calculated using the AAT-Bioquest® online calculator [27].

[3] = tested on: colorectal adenocarcinoma cell line HT-29; assay: MTS cell viability assay, HT-29; type: cell-based; conditions: Homo sapiens, 24 h exposure, mean ± SD, read-out: Half Maximal Inhibitory Concentration (IC50) HT-29
Description: as §1, §2, §3, §4, §5, §6

[4] = tested on: melanoma SK-MEL-28 cells; assay: MTS cell viability assay, SK-MEL-28; type: cell-based; conditions: Homo sapiens, 24 h exposure, mean ± SD, read-out: Half Maximal Inhibitory Concentration (IC50) SK-MEL-28
Description: as §1, §2, §3, §4, §5, §6

[5] = tested on: human normal embryonic kidney cells HEK293; assay: MTS cell viability assay, HEK293; type: cell-based; conditions: 24 h exposure, mean ± SD, read-out: Half Maximal Inhibitory Concentration (IC50) HEK293
Description: as §1, §2, §3, §4, §5, §6

[6] = tested on: murine leukemic cells L1210; parameters: method as in doi:10.1021/jo00080a023, PMID 12192142; conditions: at a concentration of 2 μM; ref [21],[28]; cited from earlier work
[7] = tested on: a number of human cancer cell lines; parameters: method as in doi:10.1021/jo00080a023, PMID 12192142; conditions: at concentrations of 15–34 μM; ref [21],[28]; cited from earlier work

Compound: CCCCCCCCCCCCCC[C@@H](O)C(=O)N[C@@H](CO)[C@H](O)[C@H](O)CCCC/C=C\CCCCCCCCC(C)C [Compound 1, (2S,3S,4R,9Z)-2-[(2R)-2-hydroxyhexadecanoylamino]-19-methyl-9-icosen-1,3,4-triol]
inhibition at 20 µM [1]: 46%
IC50 [2]: > 50 µM
cytotoxic activity against MDA-MB-231 cells (in words) [2]: slight cytotoxic activity
IC50 [3]: > 50 µM
IC50 [4]: > 50 µM
IC50 [5]: > 50 µM

Compound: CCCCCCCCCCCCCC[C@@H](O)C(=O)N[C@@H](CO)[C@H](O)[C@H](O)CCCC/C=C\CCCCCCCCCCC(C)C [Compound 2, (2S,3S,4R,9Z)-2-[(2R)-2-hydroxyhexadecanoylamino]-21-methyl-9-docosen-1,3,4-triol]
inhibition at 20 µM [1]: 68%
IC50 [2]: 48.7 ± 2.4 µM
IC50 [3]: > 50 µM
IC50 [4]: > 50 µM
IC50 [5]: > 50 µM

Compound: CCCCCCCCCCCCCCC[C@@H](O)C(=O)N[C@@H](CO)[C@H](O)[C@H](O)CCCC/C=C\CCCCCCCCCCC(C)C [Compound 3, (2S,3S,4R,9Z)-2-[(2R)-2-hydroxyheptadecanoylamino]-21-methyl-9-docosen-1,3,4-triol]
inhibition at 20 µM [1]: 48%
IC50 [2]: 49.4 ± 1.6 µM
IC50 [3]: > 50 µM
IC50 [4]: > 50 µM
IC50 [5]: > 50 µM

Compound: CCCCCCCCCCCCCCCCCCCCCC[C@@H](O)C(=O)N[C@@H](CO[C@@H]1O[C@H](CO)[C@@H](O)[C@H](O)[C@H]1O)[C@H](O)[C@H](O)CCCCCCCCCC(C)CC (stereo partly drawn) [Compound 9, (2S,3S,4R)-1-O-(β-D-glucopyranosyl)-2-[(2R)-2-hydroxytetracosanoylamino]-14-methylhexadecan-3,4-diol]
inhibition at 20 µM [1]: 50%
IC50 [2]: > 50 µM
cytotoxic activity against MDA-MB-231 cells (in words) [2]: slight cytotoxic activity
IC50 [3]: > 50 µM
IC50 [4]: > 50 µM
IC50 [5]: > 50 µM

Compound: COc1cccc2c1C(=O)c1c(O)c3c(c(O)c1C2=O)C[C@@](O)(C(=O)CO)C[C@@H]3O[C@H]1C[C@H](N)[C@H](O)[C@H](C)O1 [Doxorubicin, reference compound]
inhibition at 20 µM [1]: 70%
IC50 [2]: 22.3 ± 0.2 µM
IC50 [3]: 21.8 ± 3.2 µM
IC50 [4]: 40 ± 5 µM
IC50 [5]: 35.7 ± 1.2 µM

Now from value to compound, other results behind:

IC50 [2]: 48.7 ± 1.8 µM
IC50 [3]: > 50 µM
IC50 [4]: > 50 µM
Compound: CCCCCCC/C=C/C(C)=C/CC/C=C/[C@@H](O)[C@H](CO[C@@H]1O[C@H](CO)[C@@H](O)[C@H](O)[C@H]1O)NC(=O)[C@H](O)CCCCCCCCCCCCCCCCCCCC [Compound 5, ophidiacerebroside C]
inhibition at 20 µM [1]: 54%
cytotoxic activity against murine leukemic cells L1210 (in words) [6]: strong cytotoxic activity
IC50 [5]: > 50 µM
cytotoxic activity against a number of human cancer cell lines (in words) [7]: moderate cytotoxic activity

IC50 [2]: 40.5 ± 0.5 µM
IC50 [3]: > 50 µM
IC50 [4]: > 50 µM
Compound: CCCCCCC/C=C/C(C)=C/CC/C=C/[C@@H](O)[C@H](CO[C@@H]1O[C@H](CO)[C@@H](O)[C@H](O)[C@H]1O)NC(=O)[C@H](O)CCCCCCCCCCCCCCCCCCCCC [Compound 6, ophidiacerebroside D]
inhibition at 20 µM [1]: 68%
cytotoxic activity against murine leukemic cells L1210 (in words) [6]: strong cytotoxic activity
IC50 [5]: > 50 µM
cytotoxic activity against a number of human cancer cell lines (in words) [7]: moderate cytotoxic activity

IC50 [2]: > 50 µM
IC50 [3]: > 50 µM
IC50 [4]: > 50 µM
Compound: CCCCCCCCCCCCCCCCCCCC[C@@H](O)C(=O)N[C@@H](CO[C@@H]1O[C@H](CO)[C@@H](O)[C@H](O)[C@H]1O)[C@H](O)[C@H](O)CCCCCCCCCC(C)CC (some centres unmarked) [Compound 7, CE-3-2]
inhibition at 20 µM [1]: 44%
cytotoxic activity against MDA-MB-231 cells (in words) [2]: slight cytotoxic activity
IC50 [5]: > 50 µM
